Source: patent US8686022B2, “7-(piperazine-1-ymethyl)-1H-indole-2-carboxylic acid (phenyl)-amide derivatives and allied compounds as p38 MAP kinase inhibitors for the treatment of respiratory diseases” (Boehringer Ingelheim International GmbH, priority 2008, dated 2014)
Values after ≈ are worked out from the molar mass of the structure shown.

What was measured:
p38 MAP-kinase = p38 MAP-kinase (Homo sapiens, UniProt Q16539); assay: p38 MAP-kinase enzymatic assay (phosphorylation of GST-tagged ATF2, chemoluminescence); assay type: biochemical; settings: inhibitor concentration 1 μM; activated p38 MAP-kinase 1 nM; ATP 100 μM; read-out: p38 (% Inh @ 1 μM)
Outline: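 Activated p38 MAP-kinase (1 nM) preincubated 4 h at ambient temperature with 1 μM compound in HEPES pH 7, MgCl2, DTT, TWEEN20, then reacted 1 h with 10 nM GST-ATF2 and 100 μM ATP. Phospho-ATF2 detected by AlphaScreen-type bead luminescence; percent inhibition at 1 μM versus uninhibited and kinase-free controls.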

cytochrome P450 2C9 = cytochrome P450 2C9 (Homo sapiens, UniProt P11712); assay: Determining the cyp2C9 activity (O-demethylation of [O-methyl-14C]-naproxen); assay type: in vitro ADME; settings: human recombinant cytochrome P450 2C9; 37° C.; <0.4 μM when inhibition >50% at lowest concentration; read-out: CYP 2C9 IC50
Outline: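 Recombinant CYP2C9 (40 pmol/ml) with 80 μM [O-methyl-14C]-naproxen in 0.1 M Tris, 5 mM MgCl2; test compound at 50, 10, 2 and 0.4 μM in duplicate. Started with 1 mM NADPH, stopped after 15 min with TCA; 14C-formaldehyde separated by solid-phase extraction and counted by scintillation. IC50 from least-squares fit.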

[1] = Determining the solubility (saturated solution in McIlvaine buffer pH 7.4, UV spectroscopy); assay type: physicochemical; settings: pH 7.4, aqueous buffer, thermodynamic from solid, shaken 2 hours, 0.75 mg solid in 0.75 ml
Outline: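 Excess solid (0.75 mg per 0.75 ml) shaken 2 h in McIlvaine buffer pH 7.4, then filtered through 0.45 μm PTFE membrane with first drops discarded. Dissolved amount measured by UV spectroscopy.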

Sequence of cytochrome P450 2C9 (P11712 whole entry): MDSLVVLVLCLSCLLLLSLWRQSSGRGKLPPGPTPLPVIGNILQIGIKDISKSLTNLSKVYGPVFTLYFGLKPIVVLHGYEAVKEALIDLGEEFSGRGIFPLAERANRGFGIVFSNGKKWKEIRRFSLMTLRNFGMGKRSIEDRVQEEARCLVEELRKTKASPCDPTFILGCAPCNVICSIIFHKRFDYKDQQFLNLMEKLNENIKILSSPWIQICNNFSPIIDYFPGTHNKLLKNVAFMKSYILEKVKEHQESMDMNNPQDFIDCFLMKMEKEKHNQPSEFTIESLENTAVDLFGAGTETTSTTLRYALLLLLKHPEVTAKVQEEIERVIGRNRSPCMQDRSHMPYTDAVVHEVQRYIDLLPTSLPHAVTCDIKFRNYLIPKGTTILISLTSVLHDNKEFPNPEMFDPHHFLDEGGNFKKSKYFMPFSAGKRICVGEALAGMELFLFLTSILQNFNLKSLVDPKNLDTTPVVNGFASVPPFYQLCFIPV
Sequence of p38 MAP-kinase (Q16539 whole entry): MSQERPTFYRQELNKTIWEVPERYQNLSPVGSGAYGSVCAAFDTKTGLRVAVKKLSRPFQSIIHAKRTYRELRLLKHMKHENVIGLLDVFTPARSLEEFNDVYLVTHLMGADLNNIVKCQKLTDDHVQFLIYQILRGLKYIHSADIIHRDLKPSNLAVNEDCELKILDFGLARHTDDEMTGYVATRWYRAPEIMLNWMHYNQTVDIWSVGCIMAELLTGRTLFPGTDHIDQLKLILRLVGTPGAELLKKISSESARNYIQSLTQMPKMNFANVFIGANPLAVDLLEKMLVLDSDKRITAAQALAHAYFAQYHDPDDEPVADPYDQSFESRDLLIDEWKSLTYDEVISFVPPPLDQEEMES

inhibition at 1 µM (p38 MAP-kinase) [%]	IC50 (cytochrome P450 2C9) [nM]	solubility at 2 h [1] [µg/mL]	Structure (SMILES)
13.2	2650	> 1000	CCC(C)c1cc(NC(=O)c2cc3cccc(CN4CCN(C(=O)[C@@H]5CCCN5C)CC4)c3n2C)c(OC)c(NS(C)(=O)=O)c1 (stereo partly drawn) [11(1), 1-methyl-7-[4-((2S)-1-methyl-pyrrolidine-2-carbonyl)-piperazin-1-ylmethyl]-1H-indole-2-carboxylic acid-(5-sec-butyl-3-methanesulphonylamino-2-methoxy-phenyl)-amide]
18	10400	> 1000	COc1c(NC(=O)c2cc3cccc(CN4CCN(C(=O)[C@@H]5CCCN5C)CC4)c3n2C)cc(C(C)C)cc1NS(C)(=O)=O [11(2), (S)-1-methyl-7-[4-(1-methyl-pyrrolidine-2-carbonyl)-piperazin-1-ylmethyl]-1H-indole-2-carboxylic acid-(5-isopropyl-3-methanesulphonylamino-2-methoxy-phenyl)-amide]
99.5	460	43 (≈ 68.9 µM)	COc1c(NC(=O)c2cc3cccc(CN4CCN(C(=O)[C@@H]5CCCN5C)CC4)c3n2C)cc(C(C)(C)C)cc1S(C)(=O)=O [11(4), (S)-1-methyl-7-[4-(1-methyl-pyrrolidine-2-carbonyl)-piperazin-1-ylmethyl]-1H-indole-2-carboxylic acid-(5-tert-butyl-3-methanesulphonyl-2-methoxy-phenyl)-amide]
99.6	2340	53 (≈ 83.1 µM)	COc1c(CS(C)(=O)=O)cc(C(C)(C)C)cc1NC(=O)c1cc2cccc(CN3CCN(C(=O)[C@@H]4CCCN4C)CC3)c2n1C [11(5), (S)-1-methyl-7-[4-(1-methyl-pyrrolidine-2-carbonyl)-piperazin-1-ylmethyl]-1H-indole-2-carboxylic acid-(5-tert-butyl-3-methanesulphonylmethyl-2-methoxy-phenyl)-amide]
99.6	3180	680 (≈ 1090 µM)	COc1c(C[S+](C)[O-])cc(C(C)(C)C)cc1NC(=O)c1cc2cccc(CN3CCN(C(=O)[C@@H]4CCCN4C)CC3)c2n1C (stereo partly drawn) [11(6), 1-methyl-7-[4-((2S)-1-methyl-pyrrolidine-2-carbonyl)-piperazin-1-ylmethyl]-1H-indole-2-carboxylic acid-(5-tert-butyl-3-methanesulphinylmethyl-2-methoxy-phenyl)-amide]
99.3	410	110 (≈ 168 µM)	CCOc1c(NC(=O)c2cc3cccc(CN4CCN(C(=O)[C@@H]5CCCN5C)CC4)c3n2C)cc(C(C)(C)C)cc1NS(C)(=O)=O [11(7), (S)-1-methyl-7-[4-(1-methyl-pyrrolidine-2-carbonyl)-piperazin-1-ylmethyl]-1H-indole-2-carboxylic acid-(5-tert-butyl-3-methanesulphonylamino-2-ethoxy-phenyl)-amide]
87.7	960	44 (≈ 69.7 µM)	CCCC(=O)Nc1cc(C(C)(C)C)cc(NC(=O)c2cc3cccc(CN4CCN(C(=O)[C@@H]5CCCN5C)CC4)c3n2C)c1OC [12(1), (S)-1-methyl-7-[4-(1-methyl-pyrrolidine-2-carbonyl)-piperazin-1-ylmethyl]-1H-indole-2-carboxylic acid-(5-tert-butyl-3-butyrylamino-2-methoxy-phenyl)-amide]
98.2	3460	630 (≈ 1050 µM)	COc1c(NC(C)=O)cc(C(C)(C)C)cc1NC(=O)c1cc2cccc(CN3CCN(C(=O)[C@@H]4CCCN4C)CC3)c2n1C [12(2), (S)-1-methyl-7-[4-(1-methyl-pyrrolidine-2-carbonyl)-piperazin-1-ylmethyl]-1H-indole-2-carboxylic acid-(3-acetylamino-5-tert-butyl-2-methoxy-phenyl)-amide]
97.3	2150	91 (≈ 144 µM)	COc1c(NC(=O)c2cc3cccc(CN4CCN(C(=O)[C@@H]5CCCN5C)CC4)c3n2C)cc(C(C)(C)C)cc1NC(=O)C(C)C [12(3), (S)-1-methyl-7-[4-(1-methyl-pyrrolidine-2-carbonyl)-piperazin-1-ylmethyl]-1H-indole-2-carboxylic acid-(5-tert-butyl-3-isobutyrylamino-2-methoxy-phenyl)-amide]
96.4	650	59 (≈ 93.8 µM)	COc1c(NC(=O)c2cc3cccc(CN4CCN(C(=O)[C@@H]5CCCN5C)CC4)c3n2C)cc(C(C)(C)C)cc1NC(=O)C1CC1 [12(4), (S)-1-methyl-7-[4-(1-methyl-pyrrolidine-2-carbonyl)-piperazin-1-ylmethyl]-1H-indole-2-carboxylic acid-[5-tert-butyl-3-(cyclopropanecarbonyl-amino)-2-methoxy-phenyl]-amide]
99.3	670	12 (≈ 18 µM)	COc1c(NC(=O)c2cc3cccc(CN4CCN(C(=O)[C@@H]5CCCN5C)CC4)c3n2C)cc(C(C)(C)C)cc1NS(=O)(=O)C1CC1 [13(1), (S)-1-methyl-7-[4-(1-methyl-pyrrolidine-2-carbonyl)-piperazin-1-ylmethyl]-1H-indole-2-carboxylic acid-(5-tert-butyl-3-cyclopropanesulphonylamino-2-methoxy-phenyl)-amide]
97.9	5270	97 (≈ 149 µM)	COc1c(NC(=O)c2cc3cccc(CN4CCN(C(=O)[C@@H]5CCCN5C)CC4)c3n2C)cc(C(F)(F)F)cc1NS(C)(=O)=O [14(1), (S)-1-methyl-7-[4-(1-methyl-pyrrolidine-2-carbonyl)-piperazin-1-ylmethyl]-1H-indole-2-carboxylic acid-(3-methanesulphonylamino-2-methoxy-5-trifluoromethyl-phenyl)-amide]
98.9	2420	360 (≈ 551 µM)	COc1c(NC(=O)c2cc3cccc(CN4CCN(C(=O)C5CCN(C)CC5)CC4)c3n2C)cc(C(C)(C)C)cc1NS(C)(=O)=O [Example 1, 1-methyl-7-[4-(1-methyl-piperidine-4-carbonyl)-piperazin-1-ylmethyl]-1H-indole-2-carboxylic acid(5-tert-butyl-3-methanesulphonylamino-2-methoxy-phenyl)-amide]
99.1	1290	10 (≈ 15 µM)	COc1c(NC(=O)c2cc3cccc(CN4CCN(C(=O)N5CC[C@@H](N(C)C)C5)CC4)c3n2C)cc(C(C)(C)C)cc1NS(C)(=O)=O [Example 2, (R)-7-[4-(3-dimethylamino-pyrrolidine-1-carbonyl)-piperazin-1-ylmethyl]-1-methyl-1H-indole-2-carboxylic acid(5-tert-butyl-3-methanesulohonylamino-2-methoxy-phenyl)-amide]
99	1260	85 (≈ 139 µM)	COc1c(NC(=O)c2cc3cccc(CN4CCN(C(=O)C5CNC5)CC4)c3n2C)cc(C(C)(C)C)cc1NS(C)(=O)=O [Example 3, 7-[4-(azetidine-3-carbonyl)-piperazin-1-ylmethyl]-1-methyl-1H-indole-2-carboxylic acid (5-tert-butyl-3-methanesulphonylamino-2-methoxy-phenyl)-amide]
99.4	440	78 (≈ 119 µM)	COc1c(NC(=O)c2cc3cccc(CN4CCN(C(=O)C5CCCN(C)C5)CC4)c3n2C)cc(C(C)(C)C)cc1NS(C)(=O)=O (stereo not drawn) [Example 4, 1-methyl-7-[4-(1-methyl-piperidine-3-carbonyl)-piperazin-1-ylmethyl]-1H-indole-2-carboxylic acid (5-tert-butyl-3-methanesulphonylamino-2-methoxy-phenyl)-amide]
98.6	1150	620 (≈ 971 µM)	COc1c(NC(=O)c2cc3cccc(CN4CCN(C(=O)[C@H]5CCN(C)C5)CC4)c3n2C)cc(C(C)(C)C)cc1NS(C)(=O)=O [Example 5, (S)-1-methyl-7-[4-(1-methyl-pyrrolidine-3-carbonyl)-piperazin-1-ylmethyl]-1H-indole-2-carboxylic acid (5-tert-butyl-3-methanesulphonylamino-2-methoxy-phenyl)-amide]
98.6	3430	> 1000	COc1c(NC(=O)c2cc3cccc(CN4CCN(C(=O)CN5CCC(N(C)C)CC5)CC4)c3n2C)cc(C(C)(C)C)cc1NS(C)(=O)=O [Example 6, 7-{4-[2-(4-dimethylamino-piperidin-1-yl)-acetyl]-piperazin-1-ylmethyl}-1-methyl-1H-indole-2-carboxylic acid-(5-tert-butyl-3-methanesulphonylamino-2-methoxy-phenyl)-amide]
98.7	5320	110 (≈ 168 µM)	COc1c(NC(=O)c2cc3cccc(CN4CCN(C(=O)CN5CCNCC5)CC4)c3n2C)cc(C(C)(C)C)cc1NS(C)(=O)=O [Example 7, 1-methyl-7-[4-(2-piperazin-1-yl-acetyl)-piperazin-1-ylmethyl]-1H-indole-2-carboxylic acid-(5-tert-butyl-3-methanesulphonylamino-2-methoxy-phenyl)-amide]
